Experimental data reported in patent US10124065B2, “Lipids and lipid compositions for the delivery of active agents” (Novartis AG, priority 2013, dated 2018).

Legend:
PLK-1 mRNA = test: LS411N Xenograft Assay; assay type: in vivo, Nu/Nu mice; details: percent knock down of PLK-1 mRNA vs control in LS411N tumors, IV 3 mg/kg daily for three days
Procedure: Female Nu/Nu mice (6-8 weeks old) were implanted subcutaneously with 5×10^6 LS411N cells. Tumor growth was monitored by caliper measurement before treatment initiation. Mice bearing 150-250 mm^3 subcutaneous tumors were randomized and enrolled in the study. The stock siRNA formulations were diluted to […] with PBS for dosing. Animals enrolled in different groups received a single daily bolus IV injection of 3 mg/kg siRNA for three days. Tumors were harvested 24 hours post last injection to assess target gene regulation by qRT-PCR.
Lipid nanoparticles comprising lipid compounds of formula (I) and the PLK1-424 siRNA duplex sequence listed above were tested in the LS411N Xenograft Assay. The results of this assay are given in Table 5 below as a percent knock down of PLK-1 mRNA as compared to the control when administered as a single daily dose for three days at a dose of 3 mg/kg.

human leptin [1] = test: Mouse intravenous tail vein injection of modified synthetic leptin mRNA, human leptin ELISA; assay type: in vivo, C57BL/6 mouse; details: human leptin in mouse plasma, 10 μg leptin mRNA, 24 h
Procedure: Before the tail vein injection, mouse body weights were recorded and diet weighted, with mice grouped according to their body weights. Mice were prepared by warming them under a heating lamp for ˜2 minutes, with the mice about 12 inches from heat lamp.
For the tail vein injection procedure, the mice were placed in a restrainer and their tails cleaned with 70% alcohol. A 27 gauge needle (Becton Dickinson, Catalogue #305109) connected with a 1 ml syringe (Becton Dickinson, Catalogue #309659) was inserted into the tail vein, with bevel facing up, and the syringe plunger was pulled backwards to ensure blood is drawn into the syringe. The desired volume of modified synthetic leptin mRNA was injected by hand with moderate pressure and speed. The needle was then withdrawn and bleeding stopped by adding pressure to injection site with gauze.
(§1) Single housed, 8-9 week old, male C57BL/6 mice were used for the in vivo study. FPLC purified modified synthetic leptin mRNA (SEQ ID NO: 5) in which the uridines were substituted with pseudouridine was packaged in a cationic lipid (N:P molar ratio=8:1) and then were diluted in injectable saline at a dose of 10 μg per average group body weight.
On day 0, animals were weighed and sorted according to average body weight. Mice were dosed, and food intake (FI) was recorded, on each of days 1-7 and days 9, 11, and 16.
(§2) Human leptin in mouse plasma was measured by ELISA. Antibodies purchased from the R&D Systems duoset (Cat# DY398E, part#840279 for capture antibody and part#840280 for detection antibody) were reconstituted using PBS and titered, again using PBS. The capture antibody was coated at 4 ug/ml in 30 ul/well on a white Nunc® Maxisorp 384 well plate (Cat#460372). After an overnight incubation at room temperature the capture antibody was aspirated and the plate blocked for 2 hours at room temperature with 90 ul/well of KPL milk blocker (Cat#50-82-00). Once the incubation was completed the plate was aspirated and recombinant standards and samples were added to the plate at 30 ul/well for 2 hours at 37° C. while shaking at 600 rpm. Sample/standard dilutions were made using casein sample diluent. Washing/aspiration 3 times with 100 ul/well followed, using Teknova plate wash solution (Cat# P1192). Next, detection antibody was diluted using casein detection antibody diluent to 12.5 ng/ml and added at 30 ul/well for 2 hours room temperature. After this incubation, the plate was washed again and a solution of poly-streptavidin-HRP (Cat#21140) at a 1:1250 dilution in HRP dilution buffer was added to each well (30 ul/well) and incubated for 30 minutes room temperature. A final wash/aspiration removed the HRP solution and a chemiluminescent substrate was added at 30 ul/well (Cat#1859678 & 1859679). The plate was quickly read using a SpectramaxM5 plate reader with a 50 ms integration time. The dynamic range of the ELISA is from 100-2,000 pg/ml (6.25-125 pM) of human leptin.

human leptin [2] = test: Mouse subcutaneous injection of modified synthetic leptin mRNA, human leptin ELISA; assay type: in vivo; details: human leptin in mouse plasma, 10 μg leptin mRNA
Procedure: Prior to subcutaneous injection, mouse body weights were recorded and diet weighted, with mice grouped according to their body weights. The mice were manually restrained and placed on a work surface. Their scruffs were pinched and lifted away from the underlying muscle, the space into which was inserted a 25 gauge needle connected with a 1 ml syringe. The syringe plunger was pulled backwards in such a way as to ensure no fluid was drawn into the syringe, and then the desired volume of leptin mRNA was hand injected with moderate pressure and speed. The needle was then withdrawn and the mice returned to their cages.
as §1, with “8-9” for “Single housed, 8-9”, “pseudouridine” for “pseudouridine was packaged in a cationic lipid”, “packaged in multiple cationic lipid” for “and then”
On day 0, animals were weighed and sorted according to average body weight. ice were dosed at 9 AM and blood was taken at 9 AM on day 0. Blood was also taken at 9 AM on each of days 1 and 2 and assessed for leptin protein levels. Body weight and food intake were also recorded.
as §2, with “leptin. The assay is applicable to plasma from mice, rats and cynomolgus monkeys.” for “leptin.”

[3] = test system: plasma Factor VII enzyme activity; test: Mouse Factor VII dosing / Factor VII Activity Assay; assay type: in vivo; details: percent knock down of plasma Factor VII activity, CD-1 mice, 48 h; for KD FVII 0.3 mg/kg: single IV dose 0.3 mg/kg; for KD FVII 0.03 mg/kg: single IV dose 0.03 mg/kg
How it was run: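 Female CD-1 mice (~25 g) received a single IV tail-vein dose of lipid-nanoparticle-formulated Factor VII siRNA (0.3 or 0.03 mg/kg). Plasma taken ~48 h later; FVII activity measured chromogenically against vehicle-control plasma standard curve, reported as % knockdown.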

[4] = Particle size of lipid nanoparticle (dynamic light scattering, Malvern Zetasizer); assay type: physicochemical
How it was run: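 Sizes are average diameters of fully formed nanoparticles measured by dynamic light scattering. Samples were diluted in PBS to a count rate of about 200–400 kcts. Values are intensity-weighted Z-average sizes.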

[5] = Polydispersity index (PDI) of lipid nanoparticle (dynamic light scattering); assay type: physicochemical
Procedure: Unless indicated otherwise, all PDIs referred to herein are the PDI of the fully formed nanoparticle, as measured by dynamic light scattering on a Malvern Zetasizer. The nanoparticle sample was diluted in phosphate buffered saline (PBS) so that the count rate was approximately 200-400 kcts. The data is presented in Tables 4 and 5 as a weighted average of the intensity measure.

[6] = LNP Chol/DSPC/PEG-DMG 45/44/9/2
[7] = LNP Chol/DSPC/PEG-DSG 45/44/9/2
[8] = FVII siRNA LNP, Chol/DSPC/S010, molar ratio 45/44/9/2, Z-average
[9] = PLK1-424 siRNA LNP, Chol/DSPC/PEG-DSG 45/44/9/2
[10] = FVII siRNA LNP, Chol/DSPC/S010, molar ratio 45/44/9/2
[11] = PLK1-424 siRNA LNP, Chol/DSPC/S010 45/44/9/2

Row | Structure (SMILES) | LS411 KD 3 × 3 mg/Kg (PLK-1 mRNA; LNP Chol/DSPC/S010 45/44/9/2) [%] | Leptin expression IV-C57BI/6, 24 h (human leptin [1]) [ng/mL] | Leptin expression SC-C57BI/6, 24 h (human leptin [2]) [ng/mL] | KD FVII 0.3 mg/kg [3, 6] [%] | KD FVII 0.03 mg/kg ([3]; LNP Chol/DSPC/S010 45/44/9/2) [%] | LS411 KD 3 × 3 mg/Kg (PLK-1 mRNA; [7]) [%] | Size (nm) [4, 8] [nm] | PDI [5, 10] | also measured
1 | CCCCC/C=C\C/C=C\CCCCCCCC(=O)OCCCOc1cc(CN(C)C)cc(OCCCOC(=O)CCCCCCC/C=C\C/C=C\CCCCC)c1 [Example 39, (9Z,9′Z,12Z,12′Z)-((5-((dimethylamino)methyl)-1,3-phenylene)bis(oxy))bis(propane-3,1-diyl)bis(octadeca-9,12-dienoate)] | 55 | 10.47 | 0.79 |  |  |  |  |  | 
2 | CCCCCCCC(=O)OCCCCCCCCCCOc1cc(CN(C)C)cc(OCCCCCCCCCCOC(=O)CCCCCCC)c1 [Example 43, ((5-((dimethylamino)methyl)-1,3-phenylene)bis(oxy))bis(decane-10,1-diyl)dioctanoate] | 40 | 13.56 | 0.66 | 97.4 |  |  |  |  | 
3 | CCCCCCCCCC(=O)OCCCCCCCCOc1cc(CN(C)C)cc(OCCCCCCCCOC(=O)CCCCCCCCC)c1 [Example 52, ((5-((dimethylamino)methyl)-1,3-phenylene)bis(oxy))bis(octane-8,1-diyl)bis(decanoate)] | 50 | 21.18 | 0.85 |  | 73.5 | 69 |  |  | KD FVII 0.03 mg/kg [3, 6]: 72.5%
4 | CCCCCCCCCCCC(=O)OCCCCCCOc1cc(CN(C)C)cc(OCCCCCCOC(=O)CCCCCCCCCCC)c1 [Example 59, ((5-((dimethylamino)methyl)-1,3-phenylene)bis(oxy))bis(hexane-6,1-diyl)didodecanoate] |  | 8.08 | 1.16 |  | 48.24 |  |  |  | 
5 | CCCCC/C=C\C/C=C\CCCCCCCC(=O)OCCCCOc1cc(CN(C)C)cc(OCCCCOC(=O)CCCCCCC/C=C\CCCCCCCC)c1 [Example 63, (9Z,12Z)-4-(3-((dimethylamino)methyl)-5-(4-(oleoyloxy)butoxy)phenoxy)butyl octadeca-9,12-dienoate] |  |  |  |  | 75 | 66 | 91.66 | 0.057 | Size (nm) [4, 9]: 108.6 nm; PDI [5, 9]: 0.047
6 | CCCCCCCC(=O)OCC(CCOc1cc(CN(C)C)cc(OCCC(COC(=O)CCCCCCC)OC(=O)CCCCCCC)c1)OC(=O)CCCCCCC (stereo not drawn) [Example 91, 4,4′-((5-((dimethylamino)methyl)-1,3-phenylene)bis(oxy))bis(butane-1,2-diyl)tetraoctanoate] | 45 |  |  | 99.0 |  |  | 111.9 | 0.053 | Size (nm) ([4]; FVII siRNA LNP, Chol/DSPC/PEG-DMG, molar ratio 45/44/9/2, Z-average): 124.3 nm; Size (nm) [4, 11]: 136.1 nm; PDI ([5]; FVII siRNA LNP, Chol/DSPC/PEG-DMG, molar ratio 45/44/9/2): 0.06; PDI [5, 11]: 0.032
